# Assay results from patent publication US20250186391A1, “ORAL COMPLEMENT FACTOR D INHIBITORS” (BioCryst Pharmaceuticals, Inc., priority 2019, published 2025).
# Target: Factor D (Homo sapiens (Human), UniProt P00746)
# Experiment: Factor D esterolytic assay
# Assay type: biochemical
# Conditions: Z-Lys-SBzl substrate, 100 mM HEPES, 500 mM NaCl, pH 7.5, 10% DMSO; tested a minimum of three times; read-out: Measured Ki (IC50) Value for Compounds: IC50
# Description: The IC50 value of a compound (i.e., the concentration of the compound that inhibits 50% of the enzymatic activity) was calculated according to the procedure reported in U.S. Pat. No. 6,653,340 B1, e.g., column 74 (incorporated by reference).
# Specifically, the compounds were dissolved in a stock solution of DMSO at 10.0 or 100 mM. A portion of this stock solution was added to assay buffer in a final volume of 50 μL. Controls included buffer alone and enzyme solutions to which DMSO was added. Substrate was added to the reaction wells immediately or after incubation at room temperature. The reaction rates were measured spectrophotometrically by the generation of product at 405 nm for 600 sec. Background absorbance at 690 nm was measured and subtracted from the absorbance at 405 nm for each well.
# The reaction rate for enzyme alone was compared to the rate of enzyme in the presence of inhibitor and the percent inhibition was calculated as shown below: […]
# An established esterolytic assay for the measurement of Factor D activity and inhibition of Factor D activity was used (Kam, C. M.; McRae, B. J.; Harper, J. W.; Niemann, M. A.; Volanakis, J. E.; Powers, J. C. Human complement proteins D, C2, and B Active site mapping with peptide thioester substrates. J Biol. Chem. 1987, 262, 3444-3451). For this assay Z-Lys-SBzl, 1.29 mM (Kim, S.; Narayana, S. V. L; Volanakis, J. E. Mutational analysis of the substrate binding site of human complement Factor D. Biochemistry. 1994, 33, 14393-14399.) was used as the substrate for Factor D ([…]). Hydrolysis of this compound by Factor D liberated a free sulfhydryl group which is then reacted with 5,5′-dithiobis(2nitrobenzoic acid) producing an intense yellow color (Habeeb, A. F. S. A. Reaction of protein sulfhydryl groups with Ellman's Reagent. Methods in Enzymol. 1976, 25, 457-464.). The assays were performed in 96 well microtiter plates and rates of hydrolysis were monitored at 405 nm on a Biotek Synergy H1 plate reader. Hydrolysis rates were reported as change in mOD/min. The assay was conducted in 100 mM HEPES, 500 mM NaCl, pH 7.5 containing 10% DMSO in a final volume of 50 μL per well.
# An IC50, a compound concentration which inhibits 50% of the enzymatic activity, was calculated. Compounds in the examples were tested a minimum of three times.
# Sequence of Factor D (P00746 26-253): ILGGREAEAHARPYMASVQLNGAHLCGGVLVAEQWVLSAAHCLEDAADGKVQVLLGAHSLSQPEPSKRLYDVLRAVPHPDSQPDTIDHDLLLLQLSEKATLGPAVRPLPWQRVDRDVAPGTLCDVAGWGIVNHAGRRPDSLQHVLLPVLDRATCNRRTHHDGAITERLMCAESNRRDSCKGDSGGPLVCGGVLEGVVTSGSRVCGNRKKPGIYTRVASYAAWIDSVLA
row,SMILES,IC50
1,"COc1c(-c2cc3c(COc4ccccc4CC(=O)O)cccc3o2)ccnc1CN [Compound 329d, 2-(2-((2-(2-(aminomethyl)-3-methoxypyridin-4-yl)benzofuran-4-yl)methoxy)phenyl)acetic acid]",1 to 10 µM
2,"C[C@@H]1CN(Cc2cc(-c3cccc(CN)c3)cc3c(COc4ccccc4CC(=O)O)coc23)C[C@H](C)O1 [Compound 208d, 2-(2-((5-(3-(aminomethyl)phenyl)-7-(((2R,6S)-2,6-dimethylmorpholino)methyl)benzofuran-3-yl)methoxy)phenyl)acetic acid]",< 1 µM
3,"NCc1cccc(-c2ccc3occ(COc4cc(C(F)(F)F)ccc4CC(=O)O)c3c2)c1 [Compound 118d, 2-(2-((5-(3-(aminomethyl)phenyl)benzofuran-3-yl)methoxy)-4-(trifluoromethyl)phenyl)acetic acid]",< 1 µM
4,"NCc1cccc(-c2cc(Cl)cc3c(COc4ccccc4CC(=O)O)coc23)c1 [Compound 193b, 2-(2-((7-(3-(aminomethyl)phenyl)-5-chlorobenzofuran-3-yl)methoxy)phenyl)acetic acid]",1 to 10 µM
5,"NCc1cccc(-c2ccc3[nH]nc(COc4ccccc4CC(=O)O)c3c2)c1 [Compound 81a, 2-(2-((5-(3-(aminomethyl)phenyl)-1H-indazol-3-yl)methoxy)phenyl)acetic acid]",< 1 µM
6,"CC(C)n1nc(COc2ccccc2CC(=O)O)c2cc(-c3cccc(CN)c3F)ccc21 [Compound 310b, 2-(2-((5-(3-(aminomethyl)-2-fluorophenyl)-1-isopropyl-1H-indazol-3-yl)methoxy)phenyl)acetic acid]",< 1 µM
7,"NCc1cccc(-c2ccc3oc(C(=O)NC4CC4)c(COc4ccccc4CC(=O)O)c3c2)c1 [Compound 64h, 2-(2-((5-(3-(aminomethyl)phenyl)-2-(cyclopropylcarbamoyl)benzofuran-3-yl)methoxy)phenyl)acetic acid]",< 1 µM
8,"NCc1cccc(-c2ccc3oc(CO)c(COc4ccccc4CC(=O)O)c3c2)c1 [Compound 112c, 2-(2-((5-(3-(aminomethyl)phenyl)-2-(hydroxymethyl)benzofuran-3-yl)methoxy)phenyl)acetic acid]",< 1 µM
9,"CCCc1oc2ccc(-c3cccc(CN)c3)cc2c1COc1cc(C)ccc1CC(=O)O [Compound 285c, 2-(2-((5-(3-(aminomethyl)phenyl)-2-propylbenzofuran-3-yl)methoxy)-4-methylphenyl)acetic acid]",< 1 µM
10,"NCc1cccc(-c2ccc3occ(COc4ccc(F)cc4CC(=O)O)c3c2)c1F [Compound 45b, 2-(2-((5-(3-(aminomethyl)-2-fluorophenyl)benzofuran-3-yl)methoxy)-5-fluorophenyl)acetic acid]",< 1 µM
11,"COc1ccc(CC(=O)O)c(OCc2c(CO)oc3ccc(-c4cccc(CN)c4)cc23)c1 [Compound 214c, 2-(2-((5-(3-(aminomethyl)phenyl)-2-(hydroxymethyl)benzofuran-3-yl)methoxy)-4-methoxyphenyl)acetic acid]",< 1 µM
12,"COc1ccc(CC(=O)O)c(OCc2c3cc(-c4cccc(CN)c4)ccc3nn2C)c1 [Compound 210c, 2-(2-((5-(3-(aminomethyl)phenyl)-2-methyl-2H-indazol-3-yl)methoxy)-4-methoxyphenyl)acetic acid]",< 1 µM
13,"Cc1cc2occ(COc3ccccc3CC(=O)O)c2cc1-c1cccc(CN)c1 [Compound 70f, 2-(2-((5-(3-(aminomethyl)phenyl)-6-methylbenzofuran-3-yl)methoxy)phenyl)acetic acid]",1 to 10 µM
14,"COc1cccc(OCc2coc3ccc(-c4cccc(CN)c4)cc23)c1CC(=O)O [Compound 109d, 2-(2-((5-(3-(aminomethyl)phenyl)benzofuran-3-yl)methoxy)-6-methoxyphenyl)acetic acid]",1 to 10 µM
15,"Cn1cncc1COc1cc(-c2cccc(CN)c2)cc2c(COc3ccccc3CC(=O)O)coc12 [Compound 199f, 2-(2-((5-(3-(aminomethyl)phenyl)-7-((1-methyl-1H-imidazol-5-yl)methoxy)benzofuran-3-yl)methoxy)phenyl)acetic acid]",< 1 µM
16,"COc1ccc(CC(=O)O)c(OCc2c(C)oc3c(NCC4CC4)cc(-c4cccc(CN)c4)cc23)c1 [Compound 274c, 2-(2-((5-(3-(aminomethyl)phenyl)-7-((cyclopropylmethyl)amino)-2-methylbenzofuran-3-yl)methoxy)-4-methoxyphenyl)acetic acid]",< 1 µM
17,"NCc1cccc(-c2ccc3occ(C(=O)Nc4ccccc4CC(=O)O)c3c2)c1 [Compound 10c, 2-(2-(5-(3-(aminomethyl)phenyl)benzofuran-3-carboxamido)phenyl)acetic acid]",< 1 µM
18,"Cn1nc(COc2ccccc2CC(=O)O)c2cc(-c3cccc(CN)c3)ccc21 [Compound 117d, 2-(2-((5-(3-(aminomethyl)phenyl)-1-methyl-1H-indazol-3-yl)methoxy)phenyl)acetic acid]",< 1 µM
19,"NCc1cccc(-c2cc(CC3CCOCC3)c3occ(COc4ccccc4CC(=O)O)c3c2)c1 [Compound 163e, 2-(2-((5-(3-(aminomethyl)phenyl)-7-((tetrahydro-2H-pyran-4-yl)methyl)benzofuran-3-yl)methoxy)phenyl)acetic acid]",< 1 µM
20,"CNc1cc(-c2cccc(CN)c2)cc2c(COc3cc(OC)ccc3CC(=O)O)coc12 [Compound 280c, 2-(2-((5-(3-(aminomethyl)phenyl)-7-(methylamino)benzofuran-3-yl)methoxy)-4-methoxyphenyl)acetic acid]",< 1 µM
21,"NCc1nccc(-c2cc3c(COc4ccccc4CC(=O)O)coc3c3ccoc23)c1F [Compound 289d, 2-(2-((5-(2-(aminomethyl)-3-fluoropyridin-4-yl)benzo[1,2-b:3,4-b′]difuran-3-yl)methoxy)phenyl)acetic acid]",< 1 µM
22,"COc1cc(-c2cccc(CN)c2)cc2c(COc3cc(C)ccc3CC(=O)O)coc12 [Compound 252c, 2-(2-((5-(3-(aminomethyl)phenyl)-7-methoxybenzofuran-3-yl)methoxy)-4-methylphenyl)acetic acid]",< 1 µM
23,"N#Cc1cccc(CC(=O)O)c1OCc1coc2ccc(-c3cccc(CN)c3)cc12 [Compound 115c, 2-(2-((5-(3-(aminomethyl)phenyl)benzofuran-3-yl)methoxy)-3-cyanophenyl)acetic acid]",< 1 µM
24,"Cc1ccc(CC(=O)O)c(OCc2coc3c(C)cc(-c4cccc(CN)c4)cc23)c1 [Compound 313c, 2-(2-((5-(3-(aminomethyl)phenyl)-7-methylbenzofuran-3-yl)methoxy)-4-methylphenyl)acetic acid]",< 1 µM
25,"CC(C)n1nc(C(Oc2ccccc2CC(=O)O)c2ccccc2)c2cc(-c3cccc(CN)c3)ccc21 (stereo not drawn) [Compound 228e, 2-(2-((5-(3-(aminomethyl)phenyl)-1-isopropyl-1H-indazol-3-yl)(phenyl)methoxy)phenyl)acetic acid]",> 10 µM
26,"CC(C)n1nc(COc2ccccc2CC(=O)O)c2cc(-c3cccc(N)c3)ccc21 [Compound 321c, 2-(2-((5-(3-aminophenyl)-1-isopropyl-1H-indazol-3-yl)methoxy)phenyl)acetic acid]",1 to 10 µM
27,"Cc1ccc(CC(=O)O)c(OCc2coc3c(OCC4CC4)cc(-c4cccc(CN)c4)cc23)c1 [Compound 161c, 2-(2-((5-(3-(aminomethyl)phenyl)-7-(cyclopropylmethoxy)benzofuran-3-yl)methoxy)-4-methylphenyl)acetic acid]",< 1 µM
